One data set deals with human NLRP3. Nature of the data set: IL-1β secretion in cultured primary human MO macrophages after ASO, LPS and ATP. Format: cell-based. The settings on record: for IL-1β induction: 50 nM ASO; for IL-1β secretion relative to ASO scramble controls: most donor cell populations. Here is the method:
The top-performing ASOs were further analyzed using human monocytes isolated from whole blood. Isolated monocytes were cultured for seven to eight days in M-CSF. Cells were then seeded and cultured overnight. […] Three hours later, the cells were treated with 5 mM ATP. Three hours later, IL-1β levels were measured using AlpaLISA. Cholesterol-tagged ASOs were incubated with PTGFRN-overexpressing exosomes to load the ASOs on the surface of the exosomes.

Data set [1] relates to primary human MO macrophages. Nature of the data set: Cell viability of cultured primary human MO macrophages treated with ASO. The format is cell-based.
The test system of the next data set is mouse NLRP3 transcript. Nature of the data set: NLRP3 knock down in mouse J774.1 cells, qRT-PCR. The format is cell-based. The conditions noted are these: 7-point titration. Here is the method:
In silico analysis of the mouse NLRP3 transcript was used to generate 100 candidate NLRP3 ASOs. Mouse J774.1 cells were treated in vitro with either 5 nM or 20 nM of each candidate NLRP3 ASO. NLRP3 expression was measured using qRT-PCR, and about 30 ASOs yielding a knock down of at least 50% were subjected to further analysis. The top 22 performing ASOs were then subjected to a 7-point titration of various concentrations in mouse J774.1 cells, and NLRP3 expression was again measured by qRT-PCR (FIGS. 4A-4V).
In general terms: Real-time PCR tracks product formation cycle by cycle.

For the next data set, the system named is mouse NLRP3 reporter. Description: Knock down of HiBit-fused mouse NLRP3 reporter in HEK reporter cell line. Format: cell-based. The settings on record: eleven concentrations. The text has this: A HEK reporter cell line was transfected with a mouse NLRP3 reporter contruct (FIG. 5A) to assay NLRP3 knockdown at eleven concentrations for the top five performing mouse ASOs (ASO Nos. 16, 19, 70, 98, and 43; FIG. 5B).
(In general: HiBiT is a short tag that completes a luciferase, so light tracks the accessible tagged protein.)

The test system of another data set is NLRP3 pathway. Description: IL-1β secretion in BMDM after ASO-RNAiMAX transfection, LPS and ATP. The conditions noted are these: 2 days post transfection, 200 ng/mL LPS 3 h, 5 mM ATP 3 h. Format: cell-based, mouse. As to the method:
Bone marrow-derived macrophages (BMDM) can be used to determine whether knock down of NLRP3 has a downstream effect on activation of the NLRP3 pathway (FIGS. 6A-6B). BMDMs were transfected with increasing concentrations of the top five performing mouse ASOs (ASO Nos. 16, 19, 70, 98, and 43) as part of an ASO-RNAiMAX complex. Two days post transfection, the cells BMDM were treated with 200 ng/mL LPS. Three hour later, the BMDM were treated with 5 mM ATP. Three hours after ATP treatment, IL-1 β secretion was measured.

The test system of another data set is BMDM. Description: Viability of BMDM treated with LPS, ATP and mNLRP3 ASOs. Format: cell-based, mouse.

One may read the IC50 as the concentration at which inhibition is half-maximal.

“Also recorded” adds a separate entry of the source.

For the substance “ASO 1664: human NLRP3 ASO, SEQ ID NO: 143 (antisense CGTCAAAGGCACCTTGCAGC; chemistry not given here)”, in the data set with human NLRP3 (2 nM, 10 nM), the IL-1β induction entry is “dose dependent decrease”. Besides, the “IL-1β secretion relative to ASO scramble controls” value in the data set with human NLRP3 (2 nM) and in the data set on human NLRP3 (10 nM) was “reduced IL-1β secretion” throughout. Also, the Cell viability entry was “remained stable” in data set [1] (2 nM ASO), “remained stable” in data set [1] (10 nM ASO) and “dropped” in data set [1] (50 nM ASO).
As for “ASO 2672: human NLRP3 ASO, SEQ ID NO: 166 (antisense AGTCCATGGCCCTTTGCACG; chemistry not given here)”, the IL-1β induction result with human NLRP3 (2 nM, 10 nM) is listed as “dose dependent decrease”. Also, the “IL-1β secretion relative to ASO scramble controls” value with human NLRP3 (2 nM) and with human NLRP3 (10 nM) was “reduced IL-1β secretion” each time. For the same substance, the values for the Cell viability result in data set [1] (2 nM ASO), in data set [1] (10 nM ASO) and in data set [1] (50 nM ASO) were “remained stable”, “remained stable” and “dropped”, respectively.
In the case of “ASO 3094: human NLRP3 ASO, SEQ ID NO: 174 (antisense GTCGAAGCAGCACTCATGCG; chemistry not given here)”, in the data set on human NLRP3 (2 nM, 10 nM), the IL-1β induction result is “dose dependent decrease”. The “IL-1β secretion relative to ASO scramble controls” value in the data set with human NLRP3 (2 nM) and with human NLRP3 (10 nM) was “reduced IL-1β secretion” in each case. Besides, the results for the Cell viability result in data set [1] (2 nM ASO), in data set [1] (10 nM ASO) and in data set [1] (50 nM ASO) were “remained stable”, “remained stable” and “dropped”, respectively.
In the case of “ASO No. 11: mouse NLRP3 ASO, SEQ ID NO: 206, Seq Start 2961 (antisense GCTTCGTAGATAGAGGTGTG; chemistry not fully specified)”, in the data set with mouse NLRP3 transcript, the IC50 amounted to 28.2 nM and the “Lowest % value (remaining NLRP3 transcript as a percent of starting levels)” value was found to be 30.70%.
As to “ASO No. 16: mouse NLRP3 ASO, SEQ ID NO: 201, Seq Start 229 (antisense GCTTGCAACGGACACTCGTC; chemistry not given here)”, in the data set with mouse NLRP3 transcript, the IC50 is 6.56 nM and the “Lowest % value (remaining NLRP3 transcript as a percent of starting levels)” value is recorded as 36.10%. In addition, the “Knock down of NLRP3 in the HEK reporter cell line” value (from here on “Knock down of NLRP3”) with mouse NLRP3 reporter is “dose-dependent knock down”. In addition, the IL-1β secretion entry with NLRP3 pathway is “decreased IL-1β secretion at all doses tested”. The Viability result in the data set with BMDM was “increased viability”.
On to “ASO No. 19: mouse NLRP3 ASO, SEQ ID NO: 202, Seq Start 318 (antisense GATACAGCCTTTCTCGGGCG; chemistry not given here)”, for which, in the data set on mouse NLRP3 transcript, the IC50 was found to be 12.7 nM and the “Lowest % value (remaining NLRP3 transcript as a percent of starting levels)” value worked out at 36.10%. In the data set on mouse NLRP3 reporter, the “Knock down of NLRP3” value was “dose-dependent knock down”. Moreover, in the data set on NLRP3 pathway, the IL-1β secretion entry is reported as “decreased IL-1β secretion at all doses tested”. In the data set on BMDM, the Viability entry is reported as “increased viability”.
For the substance “ASO No. 21: mouse NLRP3 ASO, SEQ ID NO: 207, Seq Start 392 (antisense TCGCCATTGAAGTCAATCAT; chemistry not fully specified)”, in the data set with mouse NLRP3 transcript, the IC50 is 30.1 nM and the “Lowest % value (remaining NLRP3 transcript as a percent of starting levels)” value is on record as 33.07%.
Regarding “ASO No. 41: mouse NLRP3 ASO, SEQ ID NO: 208, Seq Start 984 (antisense CTCTCGGCAGTGGATAAAGA; chemistry not fully specified)”, in the data set on mouse NLRP3 transcript, the IC50 worked out at 57.3 nM and the “Lowest % value (remaining NLRP3 transcript as a percent of starting levels)” value is listed as 52.30%.
Take “ASO No. 43: mouse NLRP3 ASO, SEQ ID NO: 205, Seq Start 1132 (antisense CGTCAAAGGCCCCTTGTAGC; chemistry not given here)”: in the data set on mouse NLRP3 transcript, the IC50 came out at 15.4 nM and the “Lowest % value (remaining NLRP3 transcript as a percent of starting levels)” value stood at 48.37%. Moreover, in the data set on mouse NLRP3 reporter, the “Knock down of NLRP3” value was “dose-dependent knock down”. Also, the IL-1β secretion result in the data set with NLRP3 pathway is given as “decreased IL-1β secretion at all doses tested”. Also, the Viability result in the data set on BMDM is listed as “increased viability”.
On to “ASO No. 48: mouse NLRP3 ASO, SEQ ID NO: 209, Seq Start 1262 (antisense TCCAAGGCTACCGGCCTCGT; chemistry not fully specified)”, for which, in the data set with mouse NLRP3 transcript, half-maximal inhibition (IC50) required 60.6 nM and the “Lowest % value (remaining NLRP3 transcript as a percent of starting levels)” value is listed as 65.00%.
On the same counts, the results for “ASO No. 55: mouse NLRP3 ASO, SEQ ID NO: 210, Seq Start 1740 (antisense CTCGCAGTCCACTTCCTTCT; chemistry not fully specified)” are 63.1 nM and 59.17%.
Turning to “ASO No. 70: mouse NLRP3 ASO, SEQ ID NO: 203, Seq Start 2235 (antisense CGTTTTGACCCTATGACAGT; chemistry not given here)”, in the data set with mouse NLRP3 transcript, the IC50 amounted to 13.4 nM and the “Lowest % value (remaining NLRP3 transcript as a percent of starting levels)” value is recorded as 30.43%. Further, the “Knock down of NLRP3” value in the data set with mouse NLRP3 reporter is on record as “dose-dependent knock down”. For the same substance, the IL-1β secretion entry in the data set on NLRP3 pathway was “decreased IL-1β secretion at all doses tested”. In the data set on BMDM, the Viability entry is “increased viability”.
On to “ASO No. 98: mouse NLRP3 ASO, SEQ ID NO: 204, Seq Start 3761 (antisense CGGGATGGTCAGTTAACAGG; chemistry not given here)”, for which, in the data set with mouse NLRP3 transcript, the IC50 came out at 14.7 nM and the “Lowest % value (remaining NLRP3 transcript as a percent of starting levels)” value turned out to be 42.17%. Also, the “Knock down of NLRP3” value in the data set with mouse NLRP3 reporter (listed as 98) is “dose-dependent knock down; also recorded: most robust knock down”. The IL-1β secretion result with NLRP3 pathway is recorded as “decreased IL-1β secretion at all doses tested”. The Viability entry in the data set with BMDM was “increased viability”.

Source of the values: patent US20230132093A1, “EXTRACELLULAR VESICLE-NLRP3 ANTAGONIST” (Codiak BioSciences, Inc., priority 2019, published 2023).
